From patent US20200323860A1, “METHODS AND MATERIALS FOR TREATING CANCER” (Mayo Foundation for Medical Education and Research, priority 2015, published 2020)

Legend:
Parkin KO MEFs = test: Transformation and escaped senescence of Parkin KO MEFs (foci formation, cell growth, SA-β-gal staining, colony formation); assay type: cell-based, mouse; conditions: FIG. 13A
Description: (§1) FIG. 13A-13F. Transformed and escape senescence events in Parkin KO MEFs were reversed by expressing WT Parkin or downregulation of Plk1 but not C431S or S378A, related to FIGS. 6. (A and B) Parkin WT and KO MEFs under various condition were analyzed for foci formation assay, number of cell growth, SA-β-gal staining for senescence, colony formation assay. Cells were infected or treated with the indicated constructs or chemical and stained (A, left). Cells were infected with the indicated constructs and stained (B, left). Quantification of (left panel) with stained cell intensity results represent the means (±S.E.) of three independent experiments performed in triplicate (right). *, p<0.05, **, p<0.01 and ***, p<0.001 by one-way ANOVA. […] Quantification of cell numbers results represent the means (±S.E.) of three independent experiments performed in triplicate. ***, p<0.001 by one-way ANOVA.
For colony formation or foci assay, early-passage MEFs (passage 5) cells were plated at low density into 60-mm cell culture plates. When sufficient colonies were visible, typically after 2-3 weeks, cells were washed twice in PBS before fixing in ice-cold 70% methanol for 30 minutes, stained by 0.2% Crystal violet for 2-3 hours. The following day cells were rinsed in PBS and air-dried. […]

[1] = system: Parkin KO MEF tumors in nude mice; test: Mouse xenograft tumor model with Parkin WT or KO MEFs; assay type: in vivo; conditions: tumors with Parkin-deficiency, i.v., 20 mg/kg twice weekly, four cycles
Description: FIGS. 11A-11H. Parkin Is A Key Mitotic Regulator Functioning as a Tumor Suppressor. (A) Cells were transfected with the indicated plasmids, and mitotic cells were analyzed by immunoblot for the indicated proteins. (B) Schematic of the experiments. (C) A549 cells stably transfected with doxycycline-inducible constructs encoding WT Parkin or mutant Parkin (S378A and S378D) were treated with doxycycline and subjected to IP and immunoblot as indicated (Top), in vivo ubiquitination (Bottom). (D) Athymic nude mice were injected subcutaneously with A549 cells stably-transfected with vector or doxycycline-inducible Parkin constructs (WT, S378A and S378D). […] Tumor growth was measured at the indicated times after injection. n=5 for each group. […] Tumor volumes (mm^3) were measured at the indicated times after injection (Bottom). *, p<0.05, **, p<0.01 and ***, p<0.001 by two-way ANOVA. […]
For MEF xenograft experiments, equal numbers (1×10^6 cells) of Parkin WT or KO MEF cells expressing luciferase mixed at a 1:1 dilution with matrigel (Collaborative Research) were implanted in the backs of athymic nude mice. Tumor growth was monitored using calipers and visualized with a bioluminescence-based IVIS system (Caliper LifeScience). […] Tumour growth was measured using a vernier caliper at the indicated times after injection, and the tumor volume was calculated as length×width×height. […]

[2] = system: Parkin WT or KO MEF cells; test: Sensitivity of Parkin WT or KO MEF cells to BI […], crystal violet staining; assay type: cell-based, mouse; conditions: FIG. 11F
Description: (A) Cells were transfected with the indicated plasmids, and mitotic cells were analyzed by immunoblot for the indicated proteins. […] (C) A549 cells stably transfected with doxycycline-inducible constructs encoding WT Parkin or mutant Parkin (S378A and S378D) were treated with doxycycline and subjected to IP and immunoblot as indicated (Top), in vivo ubiquitination (Bottom). (D) Athymic nude mice were injected subcutaneously with A549 cells stably-transfected with vector or doxycycline-inducible Parkin constructs (WT, S378A and S378D). Two days after injection, doxycycline was administered in drinking water. Tumor growth was measured at the indicated times after injection. n=5 for each group. […] Tumor volumes (mm^3) were measured at the indicated times after injection (Bottom). *, p<0.05, **, p<0.01 and ***, p<0.001 by two-way ANOVA. (E) Cells were infected with the indicated constructs and were collected for FACS analysis. […] Results represent the means (±S.E.) of three experiments performed in triplicate. *, p<0.05 and ***, p<0.001 versus Parkin WT MEFs by one-way ANOVA (Right). […] Mean transformed MEFs volumes for Parkin KO are shown. ***, p<0.001 and ****, p<0.0001 versus Parkin WT MEFs by two-way ANOVA.
For colony formation or foci assay, early-passage MEFs (passage 5) cells were plated at low density into 60-mm cell culture plates. […]

[3] = system: Parkin-deficient lung cancer cell lines; test: Growth inhibition of Parkin-deficient lung cancer cell lines; assay type: cell-based, human; conditions: BI 2536 100 nM or VX-680 50 nM for 72 hours; BI 2536 dose dependent for 3 days (FIG. 13C-13F)
Description: as §1, with “Transformed and escape senescence events in Parkin KO MEFs were reversed by expressing WT Parkin or downregulation of Plk1 but not C431S or S378A, related to FIGS. 6.” left out
(§2) All cell lines were sourced from commercial venders. […] Three normal lung (2 fibroblasts, IMR-90 and WI-38; 1 epithelial cells; BEAS-2B) cells, six NSCLCs (4 adenocarcinoma, H1437, H522, H1650 and A549; 2 large cell carcinoma, H460 and H1299), and one SCLC (H196) cells were maintained in Eagle's minimal essential media (EMEM, Gibco-Invitrogen, Grand Island, N.Y.). The human lung fibroblast IMR-90 and WI-38 cells were obtained from the American Type Culture Collection (ATCC, Manassas, Va.), and cells ranging from 29 to 34 in population doubling level (PDL) were used. […]

[4] = system: binding of Parkin to Cdc20; test: Parkin-Cdc20 binding in cells, IP-immunoblot; assay type: cell-based; conditions: cells treated with chemical, with or without nocodazole (FIG. 9J)
[5] = system: Parkin phosphorylation at Ser378; test: Parkin Ser378 phosphorylation in cells, IP and immunoblot with pS378 antibody; assay type: cell-based
Description: FIGS. 9A-9K. Parkin Is Phosphorylated by Plk1 at Ser378 and Activated during Mitosis. (A) Cells were synchronized at the G1/S transition by double-thymidine block, and cells were released. Cell were harvested at indicated times and analyzed by immunobloting. (B) Cells were incubated in the absence or presence of nocodazole or CCCP and subjected to immunoblot analysis with the indicated antibodies. (C) Comparison of the sequences surrounding 5378 of Parkin orthologues (SEQ ID NOS 42-47, respectively, in order of appearance). […] Immunoprecipitates were incubated with or without λ phosphatase (PPase) and were analyzed by immunobloting with pS378 antibody. (E) Cells were infected with the indicated constructs, synchronized by nocodazole, and released. Parkin phosphorylation at pS378 was then examined by immunoblot analysis. (F) Cells were transfected with indicated plasmids, and Parkin phosphorylation at pS378 was examined. (G) In vitro kinase assay of Parkin by Plk1. Parkin phosphorylation was visualized by pS378 Parkin antibody. (H) Cells were transfected with the indicated plasmids, and then treated with nocodazole. Cell lysates were then blotted with the indicated antibodies. (I) in vitro ubiquitination of Cyclin B1, Securin and Nek2A by WT Parkin and mutants (S65A, S65D, S378A and S378D). […] Samples were analyzed by immunobloting with anti-Cyclin B1, Securin and Nek2A antibody. […]

[6] = system: lung normal fibroblast (WI-38 and IMR 90 cells); test: Growth inhibition of normal lung fibroblasts; assay type: cell-based, human; conditions: WI-38 and IMR 90 cells (FIG. 13E and 13F)
Description: as §1, with “Transformed and escape senescence events in Parkin KO MEFs were reversed by expressing WT Parkin or downregulation of Plk1 but not C431S or S378A, related to FIGS. 6.” left out
as §2

## CC[C@@H]1C(=O)N(C)c2cnc(Nc3ccc(C(=O)NC4CCN(C)CC4)cc3OC)nc2N1C1CCCC1 [BI 2536, (R)-4-(8-cyclopentyl-7-ethyl-5-methyl-6-oxo-5,6,7,8-tetrahydropteridin-2-ylamino)-3-methoxy-N-(1-methylpiperidin-4-yl)benzamide]
Parkin KO MEFs
  escaped senescence and transformation induced by Parkin depletion: transformation was abolished
[1]
  tumor inhibition in vivo: excellent tumor inhibition
[2]
  transformation of Parkin KO MEFs: inhibited transformation of Parkin KO MEFs
[3]
  sensitivity (growth inhibition) of Parkin-deficient lung cancer cell lines: significantly sensitive
[4]
  binding of Parkin to Cdc20: decreased binding of Parkin to Cdc20
[5]; nocodazole-arrested mitotic cells, with Plk1 inhibitor (FIG. 9D)
  Parkin phosphorylation at Ser378: blocked Parkin phosphorylation at Ser378
[6]
  sensitivity (growth inhibition) of lung normal fibroblasts: but not lung normal fibroblasts

## N#CC(C#N)=NNc1cccc(Cl)c1 [CCCP, carbonyl cyanide m-chlorophenylhydrazone]
[5]; cells incubated with CCCP (FIG. 9B)
  Ser 378 phosphorylation of Parkin: did not affect Ser 378 phosphorylation

## Cc1cc(Nc2cc(N3CCN(C)CC3)nc(Sc3ccc(NC(=O)C4CC4)cc3)n2)n[nH]1 [VX 680, N-(4-(4-(5-methyl-1H-pyrazol-3-ylamino)-6-(4-methylpiperazin-1-yl)pyrimidin-2-ylthio)phenyl)-cyclopropanecarboxamide]
[3]
  sensitivity (growth inhibition) of Parkin-deficient lung cancer cell lines: significantly sensitive
[6]
  sensitivity (growth inhibition) of lung normal fibroblasts: but not lung normal fibroblasts
